# Results from ChEMBL document CHEMBL1153419 (J Med Chem, 2009).
# How the values were obtained:
# [1] = target: T1, Histamine H2 receptor (Homo sapiens, UniProt P25021); test: Agonist activity at human H2 receptor expressed in insect Sf9 cells co-expressing GsalphaS fusion protein assessed as gamma[32P]GTP binding by liquid scintillation counting
# [2] = target: T2, Histamine H3 receptor (Homo sapiens, UniProt Q9Y5N1); test: Agonist activity at human H3 receptor expressed in insect Sf9 cells co-expressing Gialpha2, Gbeta1gamma2 and RGS4 assessed as gamma[32P]GTP binding by liquid scintillation counting
# T2 sequence (Q9Y5N1 whole entry, the tested form may be a part): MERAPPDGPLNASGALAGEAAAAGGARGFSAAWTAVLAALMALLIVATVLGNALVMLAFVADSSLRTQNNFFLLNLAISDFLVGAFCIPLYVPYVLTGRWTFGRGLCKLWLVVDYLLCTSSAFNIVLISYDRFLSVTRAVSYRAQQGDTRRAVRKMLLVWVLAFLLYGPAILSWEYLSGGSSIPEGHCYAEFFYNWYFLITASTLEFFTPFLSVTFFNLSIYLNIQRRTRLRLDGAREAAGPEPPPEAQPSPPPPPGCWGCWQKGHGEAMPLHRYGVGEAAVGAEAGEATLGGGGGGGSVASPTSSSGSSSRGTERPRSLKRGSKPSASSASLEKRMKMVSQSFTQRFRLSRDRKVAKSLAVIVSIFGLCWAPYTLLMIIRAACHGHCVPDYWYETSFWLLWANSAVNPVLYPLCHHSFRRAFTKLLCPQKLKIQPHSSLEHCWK
# [3] = target: T3, Histamine H4 receptor (Homo sapiens, UniProt Q9H3N8); test: Agonist activity at human H4 receptor expressed in insect Sf9 cells co-expressing RGS19 fusion protein and Gialpha2, Gbeta1gamma2 assessed as gamma[32P]GTP binding by liquid scintillation counting
# T3 sequence (Q9H3N8 whole entry, the tested form may be a part): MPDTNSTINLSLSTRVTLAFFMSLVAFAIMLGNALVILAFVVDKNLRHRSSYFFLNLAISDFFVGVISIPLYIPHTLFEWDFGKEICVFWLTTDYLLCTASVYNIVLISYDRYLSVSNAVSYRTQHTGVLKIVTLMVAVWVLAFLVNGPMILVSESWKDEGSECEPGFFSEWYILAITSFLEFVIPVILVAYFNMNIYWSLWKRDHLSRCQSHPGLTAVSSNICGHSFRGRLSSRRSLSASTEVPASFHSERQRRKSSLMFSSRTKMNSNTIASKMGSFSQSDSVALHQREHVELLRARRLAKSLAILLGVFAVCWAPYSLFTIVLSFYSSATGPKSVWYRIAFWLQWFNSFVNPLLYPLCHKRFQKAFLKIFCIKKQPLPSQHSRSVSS
# [4] = target: T1, Histamine H2 receptor; test: Intrinsic activity at human H2 receptor expressed in insect Sf9 cells co-expressing GsalphaS fusion protein assessed as gamma[32P]GTP binding at 10 uM by liquid scintillation counting relative to histamine
# [5] = target: T2, Histamine H3 receptor; test: Intrinsic activity at human H3 receptor expressed in insect Sf9 cells co-expressing Gialpha2, Gbeta1gamma2 and RGS4 assessed as gamma[32P]GTP binding at 10 uM by liquid scintillation counting relative to histamine
# [6] = target: T3, Histamine H4 receptor; test: Intrinsic activity at human H4 receptor expressed in insect Sf9 cells co-expressing RGS19 fusion protein and Gialpha2, Gbeta1gamma2 assessed as gamma[32P]GTP binding at 10 uM by liquid scintillation counting relative to histamine
# [7] = target: Histamine H1 receptor (Cavia porcellus, UniProt P31389); test: Antagonist activity at histamine H1 receptor in guinea pig ileum assessed as inhibition of histamine-induced contractions; assay type: functional, tissue-based; conditions: read-out: pA2 (converted)
# Sequence of Histamine H1 receptor (Cavia porcellus, UniProt P31389) (P31389 whole entry): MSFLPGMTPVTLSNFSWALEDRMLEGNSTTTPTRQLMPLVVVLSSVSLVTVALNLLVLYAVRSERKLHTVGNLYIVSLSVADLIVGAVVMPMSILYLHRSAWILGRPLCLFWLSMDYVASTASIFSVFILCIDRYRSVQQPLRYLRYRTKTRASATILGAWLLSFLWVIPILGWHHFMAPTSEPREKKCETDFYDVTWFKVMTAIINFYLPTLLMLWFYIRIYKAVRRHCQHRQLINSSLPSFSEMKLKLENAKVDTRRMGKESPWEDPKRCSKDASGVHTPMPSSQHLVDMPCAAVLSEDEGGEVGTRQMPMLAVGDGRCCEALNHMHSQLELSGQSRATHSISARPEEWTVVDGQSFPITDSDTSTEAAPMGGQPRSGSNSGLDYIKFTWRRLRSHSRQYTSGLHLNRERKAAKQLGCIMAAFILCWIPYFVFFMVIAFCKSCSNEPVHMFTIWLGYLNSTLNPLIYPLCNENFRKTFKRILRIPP
# [8] = target: T4, Histamine H2 receptor (Cavia porcellus, UniProt P47747); test: Agonist activity at histamine H2 receptor in guinea pig atrium assessed as increase in heart rate; assay type: functional, tissue-based, Cardiac atrium
# T4 sequence (P47747 whole entry): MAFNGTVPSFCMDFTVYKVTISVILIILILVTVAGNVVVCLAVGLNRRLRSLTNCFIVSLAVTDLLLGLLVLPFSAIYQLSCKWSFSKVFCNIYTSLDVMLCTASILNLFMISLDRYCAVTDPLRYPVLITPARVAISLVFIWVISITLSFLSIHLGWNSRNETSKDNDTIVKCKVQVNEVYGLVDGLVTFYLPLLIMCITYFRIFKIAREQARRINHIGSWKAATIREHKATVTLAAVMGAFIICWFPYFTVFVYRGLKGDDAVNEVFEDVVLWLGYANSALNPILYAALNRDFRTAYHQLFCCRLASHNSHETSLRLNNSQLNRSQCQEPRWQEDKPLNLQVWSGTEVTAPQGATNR
# [9] = target: Histamine H2 receptor (Cavia porcellus) (UniProt P47747); test: Agonist activity at histamine H2 receptor in guinea pig atrium assessed as maximal increase in heart rate relative to histamine; assay type: functional, tissue-based; conditions: Cardiac atrium
# Sequence of Histamine H2 receptor (Cavia porcellus) (P47747 whole entry): as above
# [10] = target: T5, Histamine H1 receptor (Homo sapiens, UniProt P35367); test: Intrinsic activity at human H1 receptor expressed in insect Sf9 cells co-expressing RGS4 assessed as gamma[32P]GTP binding at 10 uM by liquid scintillation counting relative to histamine
# T5 sequence (P35367 whole entry): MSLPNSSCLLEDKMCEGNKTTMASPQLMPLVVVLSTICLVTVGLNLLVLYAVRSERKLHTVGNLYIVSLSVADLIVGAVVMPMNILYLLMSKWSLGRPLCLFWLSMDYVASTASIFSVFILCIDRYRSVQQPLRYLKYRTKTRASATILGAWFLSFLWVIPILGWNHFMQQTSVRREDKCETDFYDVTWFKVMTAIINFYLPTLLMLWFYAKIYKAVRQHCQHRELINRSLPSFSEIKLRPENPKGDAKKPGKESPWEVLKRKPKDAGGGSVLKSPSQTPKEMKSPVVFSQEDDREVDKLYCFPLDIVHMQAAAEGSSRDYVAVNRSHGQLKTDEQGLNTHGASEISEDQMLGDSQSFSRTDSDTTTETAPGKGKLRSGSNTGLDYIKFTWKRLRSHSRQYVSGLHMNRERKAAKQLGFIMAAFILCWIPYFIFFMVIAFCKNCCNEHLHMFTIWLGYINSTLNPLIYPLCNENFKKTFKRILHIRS
# [11] = species: Homo sapiens; test: Selectivity ratio of EC50 for human H1R to EC50 for human H4R
# [12] = species: Homo sapiens; test: Selectivity ratio of EC50 for human H2R to EC50 for human H4R
# [13] = target: T5, Histamine H1 receptor; test: Antagonist activity at human H1 receptor expressed in insect Sf9 cells co-expressing RGS4 assessed as inhibition of histamine-induced gamma[32P]GTP binding by liquid scintillation counting
# [14] = target: T2, Histamine H3 receptor; test: Antagonist activity at human H3 receptor expressed in insect Sf9 cells co-expressing Gialpha2, Gbeta1gamma2 and RGS4 assessed as inhibition of histamine-induced gamma[32P]GTP binding by liquid scintillation counting
# [15] = target: T3, Histamine H4 receptor; test: Antagonist activity at human H4 receptor expressed in insect Sf9 cells co-expressing RGS19 fusion protein and Gialpha2, Gbeta1gamma2 assessed as inhibition of histamine-induced gamma[32P]GTP binding by liquid scintillation counting
# [16] = target: T5, Histamine H1 receptor; test: Agonist activity at human H1 receptor expressed in insect Sf9 cells co-expressing RGS4 assessed as gamma[32P]GTP binding by liquid scintillation counting
# [17] = target: T4, Histamine H2 receptor; test: Antagonist activity at histamine H2 receptor in guinea pig right atrium assessed as inhibition of histamine-induced increase in heart rate; assay type: functional, tissue-based, Cardiac atrium; conditions: read-out: pA2 (converted)
# T1 sequence (P25021 whole entry, the tested form may be a part): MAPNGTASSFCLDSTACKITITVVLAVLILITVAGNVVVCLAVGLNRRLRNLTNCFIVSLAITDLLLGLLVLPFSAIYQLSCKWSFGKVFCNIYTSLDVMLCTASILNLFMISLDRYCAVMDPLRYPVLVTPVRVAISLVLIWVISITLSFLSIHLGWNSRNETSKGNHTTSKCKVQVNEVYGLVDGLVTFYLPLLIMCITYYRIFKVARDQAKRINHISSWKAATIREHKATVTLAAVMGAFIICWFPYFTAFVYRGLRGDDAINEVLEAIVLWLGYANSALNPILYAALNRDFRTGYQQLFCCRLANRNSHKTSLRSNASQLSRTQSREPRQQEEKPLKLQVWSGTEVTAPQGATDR
SMILES,EC50 [1] [nM],EC50 [2] [nM],EC50 [3] [nM],Activity [4],Activity [5],Activity [6],Kb [7] [nM],EC50 [8] [nM],Activity [9],Activity [10],Selectivity ratio [11],Selectivity ratio [12],pKb [13],pKb [14],pKb [15],EC50 [16] [nM],Kb [17] [nM]
CN(CCC(=O)/N=C(\N)NCCCc1c[nH]cn1)C(=O)c1cc2ccccc2[nH]1,347,11,151,0.68,0.3,0.52,3020,3550,0.84,,,,,,,,
CC(=O)/N=C(\N)NCCCc1c[nH]cn1,,,,0.76,0.27,1,,,0.83,0.24,> 1000,> 100,,,,,
N/C(=N\C(=O)CCCNC(=O)c1cc2ccccc2[nH]1)NCCCc1c[nH]cn1,30.2,,,0.51,-0.18,-0.06,741,490,0.9,0.16,,,4.96,7.17,7.02,,
S=C(NC1CCCCC1)N1CCC(c2cnc[nH]2)CC1,,,,,-0.71,-0.95,,,,,,,,,,,
CCC(=O)/N=C(\N)NCCCc1c[nH]cn1,372,1.58,,0.83,0.39,,5130,,0.94,0.3,,,,,,3470,347
CC(=O)NC(N)=NCCCc1cnc[nH]1,724,3.63,4.9,,,,8510,813,,,,,,,,12900,363
CC(CC(=O)/N=C(\N)NCCCc1c[nH]cn1)c1ccccc1 (stereo not drawn),,,,0.87,0.24,0.84,,,0.99,0.35,,,< 4.9,,,,
N/C(=N\C(=O)CCNC(=O)c1cc2ccccc2[nH]1)NCCCc1c[nH]cn1,83.2,,33.1,0.33,0.1,0.37,,,,,,,,7.17,,,
N/C(=N\C(=O)Cc1c[nH]c2ccccc12)NCCCc1c[nH]cn1,36.3,,19.1,0.81,-0.15,0.7,38.9,182,0.91,0,,,5.68,7.51,,,
CC(C)C(=O)/N=C(\N)NCCCc1c[nH]cn1,110,1.41,3.72,0.86,0.26,0.94,7760,110,0.98,0.35,,,,,,2570,302
N/C(=N\C(=O)CNC(=O)c1cc2ccccc2[nH]1)NCCCc1c[nH]cn1,955,15.8,28.2,0.51,0.45,0.71,,,,,,,,,,,
CC(CC(=O)NC(N)=NCCCc1cnc[nH]1)c1ccccc1 (stereo not drawn),,2.51,,,,,,,,,,,,,,,
N/C(=N\C(=O)CCc1c[nH]c2ccccc12)NCCCc1c[nH]cn1,81.3,,7.08,0.77,-0.18,0.45,398,77.6,1.01,0.09,,,5.4,7.57,,,437
CCCC(=O)/N=C(\N)NCCCc1c[nH]cn1,141,1.58,2.57,0.77,0.37,0.96,3550,186,0.97,0.33,,,,,,2190,407
N=C(N)NCCCc1c[nH]cn1,,,,0.66,0.69,0.83,,,,,,,< 5,,,,
N/C(=N\C(=O)c1cc2ccccc2[nH]1)NCCCc1c[nH]cn1,288,,,0.87,-0.38,0.21,,,,0.42,,,,6.96,6.43,1700,
